From US6355619B1, “Peptide tumor cell growth inhibitors” (Board of Regents, The University of Texas System, priority 1996, dated 2002)

Tested on: MGSA/GROα receptors on RPMI-7951 melanoma cells
Test: Binding of 125I-MGSA/GROα to RPMI-7951 melanoma cells
Settings: RPMI-7951, 1 nM 125I-labeled MGSA/GROα; read-out: EC50, inhibition of MGSA/GROα binding
Experimental: FIG. 11A. The binding of ^125I-labeled MGSA/GROα to melanoma cell lines, Hs 294T and RPMI-7951. The melanoma cells, 1×10^5, were incubated with 1 nM ^125I-MGSA/GROα in the presence of various concentrations of unlabeled MGSA/GROα. Binding inhibition curve with Hs 294T (closed circles) and RPMI-7951 (open circles). The lines shown in the graph are the best fit curves calculated using the London II computer program.
FIG. 13. The effect of Antileukinate on the binding of radiolabeled MGSA/GROα to the melanoma cell lines. The melanoma cells, Hs 294T (closed circles) and RPMI-7951 (open circles), were incubated with 1 nM ^125I-MGSA/GROα in the presence of different concentrations of Antileukinate. The lines shown in the graph are the best fit curves calculated using the London II computer program.
Recombinant human MGSA/GROα and IL-8 were purchased form Pepro Tech Inc. (Rocky Hill, N.J.) and radioactively labeled using ^125I-labeled Bolton-Hunter reagent (DuPont-NEN, Wilmington, Del.) (Bolton and Hunter, 1973). The labeled proteins were isolated using Sephadex G-25 column (Column PD-10, Pharmacia) pre-equilibrated with PBS containing 0.1% gelatin and stored at −70° C. after the addition of 1% bovine serum albumin.
Binding studies with melanoma cell lines were performed by the method of Horuk and colleagues (Horuk et al., 1993). Briefly, the cells (1×10^5 cells/well) in 24-well plates were washed two times with Hank's Balanced Salt Solution and incubated with ^125I-labeled MGSA/GROα or IL-8 in the buffer containing 1% bovine serum albumin at 4° C. for 3 hr. The incubation was terminated by vacuum aspiration of the supernatant. The cells were washed three times in binding buffer, solubilized by the addition of 200 μl of 1% SDS, and transferred to vials for counting. The non-specific binding was estimated by measuring the binding in the presence of 100-fold excess of non-labeled ligand. The binding parameters were calculated using the Lundon II computer program (Lundon Software Inc., Chagrin Falls, Ohio).

RRWWCR [Ac-RRWWCR-NH2]
EC50: ~1000 nM
